Holding throughout (assay type): cell-based
Assay [1] concerns Axenically grown Leishmania donovani amastigotes (strain MHOM/ET/67/L82). The experiment in a line: Axenic Leishmania donovani amastigote resazurin assay. The settings on record: In vitro inhibition, read-out: L.don. ax. Put shortly: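 IC50 values derive from resazurin fluorescence (ex 536 nm, em 588 nm), expressed relative to the negative control, after 2-4 hours of plate development. Axenic amastigotes of strain MHOM/ET/67/L82 were used; each test run in triplicate.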

For another assay, the system named is Plasmodium falciparum. Put plainly: 3H-hypoxanthine incorporation assay against Plasmodium falciparum. The conditions noted are these: In vitro inhibition, read-out: P.falc NF5. As for the experimental part:
(§1) Tests were done in triplicate.
IC50 values were calculated by linear interpolation.

Assay [2] deals with Trypanosoma brucei rhodesiense (STIB 900 strain). The experiment in a line: Alamar Blue assay against Trypanosoma brucei rhodesiense grown in axenic medium. The conditions noted are these: In vitro inhibition, read-out: T.b.rhod. Put shortly: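 Alamar Blue-based IC50 determination, in triplicate, on axenically grown STIB 900 trypanosomes. Melarsoprol included as reference.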

The subject of assay [3] is Trypanosoma cruzi trypomastigote forms (Tulahuen strain). Put plainly: Intracellular Trypanosoma cruzi assay in L6-cells, beta-galactosidase/CPRG readout. The settings on record: In vitro inhibition, read-out: T.cruzi. Put shortly: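 Readout was β-galactosidase cleavage of CPRG, read photometrically at 540 nm after 2–6 h colour development, giving IC50 values. Parasites: LacZ-expressing Tulahuen C2C4 strain grown in rat L6 myoblasts; run in triplicate.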

Assay [4] has as its system intracellular Leishmania donovani (L.don. InMac). The experiment in a line: Intracellular Leishmania donovani assay (L.don. InMac). The conditions noted are these: In vitro inhibition.
Text: as §1

Non-standard residues stand in square brackets, D forms with d. Residues, ends and D or L forms follow the SMILES beside them. *: point of attachment. Benzoyl(4-CF3) = O=C(c1ccc(C(F)(F)F)cc1)*; NH((S)CH(Me)CH2NMe2) = C[C@@H](CN(C)C)N*; Benzoyl(4-OMe) = COc1ccc(C(=O)*)cc1; Gly(octyl) = CCCCCCCC[C@H](N)C(=O)O; Oxazole4CO(2-Me) = Cc1nc(C(=O)*)co1; Benzoyl(4-F) = O=C(c1ccc(F)cc1)*; hCha = N[C@@H](CCC1CCCCC1)C(=O)O; Pyrrole2CO = O=C(c1ccc[nH]1)*; X20 = O=C(c1ccc2[nH]ccc2c1)*; X15 = O=C(c1ccc2cccnc2c1)*; X17 = C[C@@H](CN1CCOCC1)N*; X21 = O=C(c1ccc2ocnc2c1)*; X4 = O=C(C1CCc2ccccc2C1)*; Aib = CC(C)(N)C(=O)O; βAla = NCCC(=O)O Where only a bound is given, the exact number is not on record here.

Regarding `CCCCCCCC[C@H](NC(=O)[C@@H]1CCCN1C(=O)C1CCc2ccccc2C1)C(=O)N[C@@H](CC(C)C)C(=O)NC(C)(C)C(=O)N[C@@H](CC(C)C)C(=O)N[C@@H](CC(C)C)C(=O)NC(C)(C)C(=O)NC(C)(C)C(=O)NCCC(=O)N[C@@H](C)CN(C)C` (stereo partly drawn) [Compound 5910, (2S)-N-[(1S)-1-[(1-{[(1S)-1-{[(1S)-1-{[1-({1-[(2-{[(2S)-1-(dimethylamino)propan-2-yl]carbamoyl}ethyl)carbamoyl]-1-methylethyl}carbamoyl)-1-methylethyl]carbamoyl}-3-methylbutyl]carbamoyl}-3-methylbutyl]carbamoyl}-1-methylethyl)carbamoyl]-3-methylbutyl]-2-{[(2S)-1-(1,2,3,4-tetrahydronaphthalene-2-carbonyl)pyrrolidin-2-yl]formamido}decanamide] (X4-P[Gly(octyl)]L[Aib]LL[Aib][Aib][βAla]-{NH((S)CH(Me)CH2NMe2)}), the IC50 worked out at 42.6 µM in assay [1]; 42.6 µM with Plasmodium falciparum; 24.8 µM in assay [2]; 0.0411 µM in assay [3]; 42.6 µM in assay [4].
In the case of `CCCCCCCC[C@H](NC(=O)[C@@H]1CCCN1C(=O)c1ccc2[nH]ccc2c1)C(=O)N[C@@H](CC(C)C)C(=O)NC(C)(C)C(=O)N[C@@H](CC(C)C)C(=O)N[C@@H](CC(C)C)C(=O)NC(C)(C)C(=O)NC(C)(C)C(=O)NCCC(=O)N[C@@H](C)CN(C)C` [Compound 5911, (2S)-N-[(1S)-1-[(1-{[(1S)-1-{[(1S)-1-{[1-({1-[(2-{[(2S)-1-(dimethylamino)propan-2-yl]carbamoyl}ethyl)carbamoyl]-1-methylethyl}carbamoyl)-1-methylethyl]carbamoyl}-3-methylbutyl]carbamoyl}-3-methylbutyl]carbamoyl}-1-methylethyl)carbamoyl]-3-methylbutyl]-2-{[(2S)-1-(1H-indole-5-carbonyl)pyrrolidin-2-yl]formamido}decanamide] (X20-P[Gly(octyl)]L[Aib]LL[Aib][Aib][βAla]-{NH((S)CH(Me)CH2NMe2)}), the IC50 in assay [1] was determined as 0.0144 µM; in the assay on Plasmodium falciparum, 42.5 µM; in assay [2], 25.6 µM; in assay [3], 0.034 µM; in assay [4], 0.0348 µM.
The corresponding values for `CCCCCCCC[C@H](NC(=O)[C@@H]1CCCN1C(=O)c1ccc(OC)cc1)C(=O)N[C@@H](CC(C)C)C(=O)NC(C)(C)C(=O)N[C@@H](CC(C)C)C(=O)N[C@@H](CC(C)C)C(=O)NC(C)(C)C(=O)NC(C)(C)C(=O)NCCC(=O)N[C@@H](C)CN(C)C` [Compound 5912, (2S)-N-[(1S)-1-[(1-{[(1S)-1-{[(1S)-1-{[1-({1-[(2-{[(2S)-1-(dimethylamino)propan-2-yl]carbamoyl}ethyl)carbamoyl]-1-methylethyl}carbamoyl)-1-methylethyl]carbamoyl}-3-methylbutyl]carbamoyl}-3-methylbutyl]carbamoyl}-1-methylethyl)carbamoyl]-3-methylbutyl]-2-{[(2S)-1-(4-methoxybenzoyl)pyrrolidin-2-yl]formamido}decanamide] ({Benzoyl(4-OMe)}-P[Gly(octyl)]L[Aib]LL[Aib][Aib][βAla]-{NH((S)CH(Me)CH2NMe2)}) are 41.4 µM, 20.9 µM, 0.0003 µM, 17.8 µM and 42.6 µM.
Take `CCCCCCCC[C@H](NC(=O)[C@@H]1CCCN1C(=O)c1ccc(C(F)(F)F)cc1)C(=O)N[C@@H](CC(C)C)C(=O)NC(C)(C)C(=O)N[C@@H](CC(C)C)C(=O)N[C@@H](CC(C)C)C(=O)NC(C)(C)C(=O)NC(C)(C)C(=O)NCCC(=O)N[C@@H](C)CN(C)C` [Compound 5936, (2S)-N-[(1S)-1-[(1-{[(1S)-1-{[(1S)-1-{[1-({1-[(2-{[(2S)-1-(dimethylamino)propan-2-yl]carbamoyl}ethyl)carbamoyl]-1-methylethyl}carbamoyl)-1-methylethyl]carbamoyl}-3-methylbutyl]carbamoyl}-3-methylbutyl]carbamoyl}-1-methylethyl)carbamoyl]-3-methylbutyl]-2-{[(2S)-1-[4-(trifluoromethyl)benzoyl]pyrrolidin-2-yl]formamido}decanamide] ({Benzoyl(4-CF3)}-P[Gly(octyl)]L[Aib]LL[Aib][Aib][βAla]-{NH((S)CH(Me)CH2NMe2)}): the IC50 is 11.7 µM in assay [1]; 31.3 µM in the assay with Plasmodium falciparum; 0.0007 µM in assay [2]; 0.0526 µM in assay [3]; less than 0.0332 µM in assay [4].
For `CCCCCCCC[C@H](NC(=O)[C@@H]1CCCN1C(=O)c1ccc2ocnc2c1)C(=O)N[C@@H](CC(C)C)C(=O)NC(C)(C)C(=O)N[C@@H](CC(C)C)C(=O)N[C@@H](CC(C)C)C(=O)NC(C)(C)C(=O)NC(C)(C)C(=O)NCCC(=O)N[C@@H](C)CN(C)C` [Compound 5937] (X21-P[Gly(octyl)]L[Aib]LL[Aib][Aib][βAla]-{NH((S)CH(Me)CH2NMe2)}) the same measures were 0.0212 µM, 27.6 µM, 43.5 µM, 0.0454 µM and 0.0585 µM.
In the case of `CCCCCCCC[C@H](NC(=O)[C@@H]1CCCN1C(=O)c1ccc2cccnc2c1)C(=O)N[C@@H](CC(C)C)C(=O)NC(C)(C)C(=O)N[C@@H](CC(C)C)C(=O)N[C@@H](CC(C)C)C(=O)NC(C)(C)C(=O)NC(C)(C)C(=O)NCCC(=O)N[C@@H](C)CN(C)C` [Compound 5938, (2S)-N-[(1S)-1-[(1-{[(1S)-1-{[(1S)-1-{[1-({1-[(2-{[(2S)-1-(dimethylamino)propan-2-yl]carbamoyl}ethyl)carbamoyl]-1-methylethyl}carbamoyl)-1-methylethyl]carbamoyl}-3-methylbutyl]carbamoyl}-3-methylbutyl]carbamoyl}-1-methylethyl)carbamoyl]-3-methylbutyl]-2-{[(2S)-1-(quinoline-7-carbonyl)pyrrolidin-2-yl]formamido}decanamide] (X15-P[Gly(octyl)]L[Aib]LL[Aib][Aib][βAla]-{NH((S)CH(Me)CH2NMe2)}), the IC50 in assay [1] was 42.4 µM; in the assay with Plasmodium falciparum it was 13.2 µM; in assay [2], 0.0005 µM; in assay [3], 42.4 µM; in assay [4] it was 0.0378 µM.
For `CCCCCCCC[C@H](NC(=O)[C@@H]1CCCN1C(=O)c1ccc[nH]1)C(=O)N[C@@H](CC(C)C)C(=O)NC(C)(C)C(=O)N[C@@H](CC(C)C)C(=O)N[C@@H](CC(C)C)C(=O)NC(C)(C)C(=O)NC(C)(C)C(=O)NCCC(=O)N[C@@H](C)CN(C)C` [Compound 5939, (2S)-N-[(1S)-1-[(1-{[(1S)-1-{[(1S)-1-{[1-({1-[(2-{[(2S)-1-(dimethylamino)propan-2-yl]carbamoyl}ethyl)carbamoyl]-1-methylethyl}carbamoyl)-1-methylethyl]carbamoyl}-3-methylbutyl]carbamoyl}-3-methylbutyl]carbamoyl}-1-methylethyl)carbamoyl]-3-methylbutyl]-2-{[(2S)-1-(1H-pyrrole-2-carbonyl)pyrrolidm-2-yl]formamido}decanamide] (Pyrrole2CO-P[Gly(octyl)]L[Aib]LL[Aib][Aib][βAla]-{NH((S)CH(Me)CH2NMe2)}), the IC50 in assay [1] was determined as 36 µM; in the assay on Plasmodium falciparum it was 36.2 µM; in assay [2], 0.0001 µM; in assay [3], 42.5 µM; in assay [4] it was 0.209 µM.
For `Cc1nc(C(=O)N2CCC[C@H]2C(=O)N[C@@H](CCC2CCCCC2)C(=O)N[C@@H](CC(C)C)C(=O)NC(C)(C)C(=O)N[C@@H](CC(C)C)C(=O)N[C@@H](CC(C)C)C(=O)NC(C)(C)C(=O)NC(C)(C)C(=O)NCCC(=O)N[C@@H](C)CN2CCOCC2)co1` [Compound 6026] ({Oxazole4CO(2-Me)}-P[hCha]L[Aib]LL[Aib][Aib][βAla]-X17) the same measures were 44.7 µM, 0.038 µM, 41.4 µM, 0.422 µM and 0.0507 µM.
Consider `CC(C)C[C@H](NC(=O)[C@H](CCC1CCCCC1)NC(=O)[C@@H]1CCCN1C(=O)c1ccc(F)cc1)C(=O)NC(C)(C)C(=O)N[C@@H](CC(C)C)C(=O)N[C@@H](CC(C)C)C(=O)NC(C)(C)C(=O)NC(C)(C)C(=O)NCCC(=O)N[C@@H](C)CN1CCOCC1` [Compound 6028, (2S)-2-[(2S)-2-{2-[(2S)-2-[(2S)-4-cyclohexyl-2-{[(2S)-1-(4-fluorobenzoyl)pyrrolidin-2-yl]formamido}butanamido]-4-methylpentanamido]-2-methylpropanamido}-4-methylpentanamido]-4-methyl-N-[1-methyl-1-({1-methyl-1-[(2-{[(2S)-1-(morpholin-4-yl)propan-2-yl]carbamoyl}ethyl)carbamoyl]ethyl}carbamoyl)ethyl]pentanamide] ({Benzoyl(4-F)}-P[hCha]L[Aib]LL[Aib][Aib][βAla]-X17), for which the IC50 in assay [1] was found to be 12.5 µM; in the assay on Plasmodium falciparum, 0.0263 µM; in assay [2], 41.9 µM; in assay [3] it was 0.23 µM; in assay [4], 0.418 µM.

Values taken from EP3345917A1, “ANTIPROTOZOAL COMPOUNDS” (Bacoba AG, priority 2017, dated 2018).
